The text below walks through data of US7417062B2, “Substituted arylamides” (ChemoCentryx, Inc., priority 2004, dated 2008).

For one test, the target named is T1, CCXCKR2 receptor (Homo sapiens, UniProt P25106).
T1 construct: host or cells: MCF-7 (endogenous) and/or MDA-MB-435S transfected with hRDC1 in pcDNA3.1(+)
T1 sequence (P25106 whole entry): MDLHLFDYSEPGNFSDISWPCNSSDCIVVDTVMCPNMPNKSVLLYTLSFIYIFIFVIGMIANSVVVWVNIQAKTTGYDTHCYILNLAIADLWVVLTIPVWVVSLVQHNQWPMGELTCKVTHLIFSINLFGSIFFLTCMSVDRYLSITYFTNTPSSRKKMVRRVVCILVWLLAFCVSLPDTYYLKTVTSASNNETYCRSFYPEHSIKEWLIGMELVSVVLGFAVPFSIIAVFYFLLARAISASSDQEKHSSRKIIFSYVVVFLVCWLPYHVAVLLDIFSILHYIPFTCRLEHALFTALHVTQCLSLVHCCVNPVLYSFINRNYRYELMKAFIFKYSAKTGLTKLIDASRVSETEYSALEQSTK
As to the kind of experiment: Displacement of 125I-labeled SDF-1 from the CCXCKR2 receptor (radioligand binding, determination of IC50 values).
Conditions: not given
A digest of the protocol:
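Whole-cell filtration binding on MCF-7 and/or MDA-MB-435S cells stably transfected with human CCXCKR2, with compounds at multiple concentrations competing with 125I-SDF-1. Incubation was 3 hr at 4° C in HEPES buffer (CaCl2, MgCl2, 0.2% BSA, pH 7.1). Bound radioactivity was collected on PEI-treated GF/B filters and counted by scintillation to give IC50.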
For orientation: Displacement assays read how much labelled ligand stays bound in the presence of the test substance.
In turn, `COc1cc(C(=O)N(Cc2ccc3cccnc3n2)C[C@@H]2CCCN2C[C@H]2C[C@H]3CC[C@@H](C2)N3)cc2c1OC(C)(C)O2` [Example 41] had an IC50 of less than 0.5 µM.

Staying with this test, now noted: MCF-7 and/or MDA-MB-435S cells expressing CCXCKR2; 125I SDF-1; 3 hr at 4° C.; read-out: Activity (ability to displace 125I SDF-1 from CCXCKR2).
As to `COc1ccc(C(=O)N(C[C@@H]2CCCN2CC2CCCCC2)c2cccc(-n3ccnn3)c2)cc1OC` [Example 76, N-((S)-1-Cyclohexylmethyl-pyrrolidin-2-ylmethyl)-3,4-dimethoxy-N-(3-[1,2,3]triazol-1-yl-phenyl)-benzamide], the IC50 was less than 10 µM.

On to `COc1cc(C(=O)N(Cc2cnc3ccccc3n2)C[C@@H]2C[C@@H]3CCCC[C@@H]3N2)cc2c1OC(C)(C)O2` [Example 68, 7-Methoxy-2,2-dimethyl-benzo[1,3]dioxole-5-carboxylic acid [(2S,3aS,7aS)-1-(octahydro-indol-2-yl)methyl]-quinoxalin-2-ylmethyl-amide], for which the IC50 is less than 0.5 µM.

As to `COc1ccc(C(=O)N(Cc2cc3ccccc3s2)C[C@@H]2CCCN2)cc1OC` [Example 29, N-Benzo[b]thiophene-2-ylmethyl-3,4-dimethoxy-N—(S)-pyrrolidin-2-ylmethyl-benzamide], the IC50 is less than 2 µM.

`COc1cc(C(=O)N(Cc2cnc3ccccc3c2)C[C@@H]2CCCN2C2CCC2)cc2c1OC(C)(C)O2`: the IC50 was less than 10 µM.

`COc1ccc(C(=O)N(Cc2nc3ccccc3s2)C[C@@H]2CCCN2C(C)C)cc1OC` [Example 28, N-Benzothiazol-2-yl methyl-(S)—N-(1-isopropyl-pyrrolidin-2-ylmethyl)-3,4-dimethoxy-benzamide]: the IC50 is less than 0.5 µM.

With `COc1cc(C(=O)N(CCC2CCCN2C)Cc2cc3ccccc3s2)cc(OC)c1OC` (stereo not shown) [Example 8, N-Benzo[b]thiophen-2-ylmethyl-3,4,5-trimethoxy-N-[2-(1-methyl-pyrrolidin-2-yl)-ethyl]-benzamide], the IC50 was less than 0.5 µM.

For the compound `COc1ccc(C(=O)N(C[C@@H]2CCCN2CC2CCCCC2)c2cccc(-c3csc(C)n3)c2)cc1OC`, the IC50 was less than 2 µM.

As to `COc1cc(C(=O)N(CCC2CCCN2C)Cc2csc3ccccc23)cc(OC)c1OC` (stereo not shown) [Example 12, N-Benzo[b]thiophen-3-ylmethyl-3,4,5-trimethoxy-N-[2-(1-methyl-pyrrolidin-2-yl)-ethyl]-benzamide], the IC50 is less than 2 µM.

As to `COc1cc(C(=O)N(CCCN2CCCCC2C)c2ccc3ccccc3c2)cc(OC)c1OC` (stereo not shown) [Example 20, 3,4,5-Trimethoxy-N-[3-(2-methyl-piperidin-1-yl)-propyl]-N-naphthalen-2-yl-benzamide], the IC50 is less than 2 µM.

In the case of `COc1ccc(C(=O)N(C[C@@H]2CCCN2CC2CC2)c2cccc(-c3ccc(F)c(Cl)c3)c2)cc1OC` [Example 38, N-(3′-Chloro-4′-fluoro-biphenyl-3-yl)-(S)—N-(1-cyclopropylmethyl-pyrrolidin-2-ylmethyl)-3,4-dimethoxy-benzamide], the IC50 was less than 10 µM.

With `CCOC(=O)c1ccc(-c2cccc(N(C[C@@H]3CCCN3CC3CC3)C(=O)c3ccc(OC)c(OC)c3)c2)cc1` [Example 36, (S)-3′-[(1-Cyclopropylmethyl-pyrrolidin-2-ylmethyl)-(3,4-dimethoxy-benzoyl)-amino]-biphenyl-4-carboxylic acid ethyl ester], the IC50 is less than 10 µM.

For the compound `COc1cc(C(=O)N(Cc2ccc3ccccc3n2)C[C@@H]2CCCN2CC2CNC2)cc2c1OC(C)(C)O2` [Example 44, 7-Methoxy-2,2-dimethyl-benzo[1,3]dioxole-5-carboxylic acid ((S)-1-azetidin-3-ylmethyl-pyrrolidin-2-ylmethyl)-quinolin-2-ylmethyl-amide], the IC50 is less than 0.5 µM.

Turning to `COc1cc(C(=O)N(Cc2nc(-c3ccccn3)sc2Cl)C[C@@H]2CCCN2C2CCC2)cc2c1OC(C)(C)O2`, the IC50 is less than 10 µM.

With `COc1cc(C(=O)N(Cc2ccc3ccccc3c2)C[C@@H]2CCCN2C2CCC2)cc2c1OC(C)(C)O2` [Example 59, 7-Methoxy-2,2-dimethyl-benzo[1,3]dioxole-5-carboxylic acid ((S)-1-cyclobutyl-pyrrolidin-2-ylmethyl)-naphthalen-2-ylmethyl-amide], the IC50 was less than 0.5 µM.

For `COc1cc(C(=O)N(CCC2CCCN2C)Cc2cc3ccccc3n2C)cc(OC)c1OC` (stereo not shown), the IC50 was less than 0.5 µM.

For the compound `COc1cc(C(=O)N(Cc2cnc3ccccc3n2)C[C@@H]2CCCN2C2CCC2)cc2c1OC(C)(C)O2` [Example 67, 7-Methoxy-2,2-dimethyl-benzo[1,3]dioxole-5-carboxylic acid ((S)-1-cyclobutyl-pyrrolidin-2-ylmethyl)-quinoxalin-2-ylmethyl-amide], the IC50 was less than 2 µM.

`COc1cc(C(=O)N(CCC2CCCN2C)Cc2cnc3ccccc3c2)cc(OC)c1OC` (stereo not shown) [Example 10]: the IC50 was less than 10 µM.

Regarding `COc1cc(C(=O)N(Cc2ccc3ccccc3[n+]2[O-])C[C@@H]2CCCN2C2CCC2)cc2c1OC(C)(C)O2` [Example 69, 7-Methoxy-2,2-dimethyl-benzo[1,3]dioxole-5-carboxylic acid ((S)-1-cyclobutyl-pyrrolidin-2-ylmethyl)-(1-oxy-quinolin-2-ylmethyl)-amide], the IC50 was less than 10 µM.

For the compound `COc1ccc(C(=O)N(Cc2nc3ccccc3s2)C[C@@H]2CCCN2CC2CCCCC2)cc1OC` [Example 27, N-Benzothiazol-2-yl methyl-(S)—N-(1-cyclohexylmethyl-pyrrolidin-2-ylmethyl)-3,4-dimethoxy-benzamide], the IC50 is less than 0.5 µM.

For the compound `COc1ccc(C(=O)N(C[C@@H]2CCCN2CC2CCCCC2)c2ccc(-c3ccccc3)cc2)cc1OC`, the IC50 was less than 10 µM.

Turning to `COc1cc(C(=O)N(C[C@@H]2CCCN2CC2CCCCC2)c2cccc(-c3ccccc3)c2)ccc1OC(F)F` [Example 33, N-biphenyl-3-yl-(S)—N-(1-cyclohexylmethyl-pyrrolidin-2-ylmethyl)-4-difluoromethoxy-3-methoxy-benzamide], the IC50 is less than 0.5 µM.
